Experimental findings from patent US20170071902A1, “NOX INHIBITOR AND NFkB INHIBITOR CONTAINING METHOXYFLAVONE” (SUNTORY HOLDINGS LIMITED, priority 2014, published 2017) are described below.

The target in experiment [1] is T1, NOX (NADPH oxidase) (Homo sapiens, UniProt P04839).
T1 construct: endogenous in cells; host or cells: HL-60 cells differentiated with 1% DMSO, used as a sonicated homogenate supernatant (A1) or as viable cells (A2)
T1 sequence (P04839 2-570 limits assumed): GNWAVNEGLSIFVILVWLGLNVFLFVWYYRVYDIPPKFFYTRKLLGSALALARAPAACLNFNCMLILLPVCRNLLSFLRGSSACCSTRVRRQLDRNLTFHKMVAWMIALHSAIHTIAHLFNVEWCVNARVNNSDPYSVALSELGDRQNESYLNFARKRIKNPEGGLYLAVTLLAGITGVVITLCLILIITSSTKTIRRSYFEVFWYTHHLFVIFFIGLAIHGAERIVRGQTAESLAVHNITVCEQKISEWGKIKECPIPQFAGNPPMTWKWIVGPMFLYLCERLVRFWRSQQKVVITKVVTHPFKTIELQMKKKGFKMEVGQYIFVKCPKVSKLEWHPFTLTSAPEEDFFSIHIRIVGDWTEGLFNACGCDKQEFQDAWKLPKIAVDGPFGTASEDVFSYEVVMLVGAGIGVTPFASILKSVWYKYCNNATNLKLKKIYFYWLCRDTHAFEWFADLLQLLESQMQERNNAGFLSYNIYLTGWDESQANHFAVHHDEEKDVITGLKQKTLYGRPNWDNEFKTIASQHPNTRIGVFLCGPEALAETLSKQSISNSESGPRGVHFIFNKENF
T1 sequence (P13498 2-195 partner limits assumed): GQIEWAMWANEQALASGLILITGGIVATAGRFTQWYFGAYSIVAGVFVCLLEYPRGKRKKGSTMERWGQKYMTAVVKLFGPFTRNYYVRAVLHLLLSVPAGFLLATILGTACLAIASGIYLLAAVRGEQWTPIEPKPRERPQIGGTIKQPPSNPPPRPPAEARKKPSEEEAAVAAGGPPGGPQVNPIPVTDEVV
The experiment is described as follows: NOX activity measurement in a cell-free system using a homogenate of differentiated HL-60 cells (NADPH consumption, fluorometry). In kind it is biochemical. Particulars: for IC50: Example 4, cell-free system using a homogenate of differentiated HL-60 cells, methoxyflavonoid comparison, read-out: IC50 (μM), NOX inhibitory activity; for NOX inhibitory activity (in words) / pIC50: cell-free system using a homogenate; for pIC50 / NOX inhibitory activity (distribution %): Example 5; for pIC50: compounds extracted and fractionated from black ginger, read-out: NOX inhibition IC50; for NOX inhibitory activity (distribution %): share of the black ginger extract's NOX inhibitory activity per compound. An excerpt: Human myeloid leukemia cell HL-60 repeats proliferation in an undifferentiated state but upon addition of DMSO (dimethyl sulfoxide), retinoic acid or the like, it is known to differentiate into mature granulocytes and lose the ability to proliferate, as accompanied by intracellular expression of NOX (NADPH oxidase) which also serves as an index for differentiation; the expressed NOX can be utilized as an enzyme source for evaluating NOX inhibitory activity.
To induce differentiation into NOX expressing granulocytes, undifferentiated HL-60 cells cultured in a 10% FBS supplemented RPMI 1640 medium were suspended in a 1% DMSO containing, 10% FBS supplemented RPM 11640 medium to give a density of 5×10^5 cells/ml, and the suspension was distributed among Petri dishes (i.d. 10 cm) in 15 ml portions and cultured in a CO2 incubator (37° C.) for three days; thereafter, 10 ml of a 1% DMSO containing, 10% FBS supplemented RPM 11640 medium was added into each of the Petri dishes and culture was performed for an additional three days, thus yielding differentiated HL-60 cells in which NOX was expressed. As described below, the differentiated HL-60 cells, either as a homogenate or in a viable state, were subjected to NOX activity measurement.
After being cooled with ice, the suspension was treated with a sonicator (Bioruptor UCD-250 HSA; product of Cosmo Bio Co., Ltd.) by repeating three cycles of a process under the condition of 4° C. or below that consisted of 20-sec disrupting at maximum power and 30-sec interval cooling, whereupon a cell homogenate was obtained. The homogenate was centrifuged at 1000 g for 4 minutes to remove debris; to the resulting supernatant, nine volumes of a reaction buffer (65 mM phosphate buffered solution containing 1 mM EGTA, 10 μM FAD and 170 mM sucrose; pH 7.0) were added to prepare a homogenate's supernatant for NOX activity measurement (equivalent to 1×10^7 cells/ml).
For reaction with NOX, 50 μl of the above-described cell homogenate was poured into each well of a 96-well microplate and after adding 25 μl of a 0.5 mM SDS solution as a NOX activator and 25 μl of a 0.4 mM NADPH solution as a substrate, the reaction was carried out at 25° C. for 30-90 minutes. The NOX activity was determined by measuring the rate of NADPH consumption through fluorometry (Ex: 355 nm/Em: 460 nm).

Experiment [2] concerns NFκB. In words: NFκB inhibiting action: nitrous acid production in LPS-stimulated RAW 264.7 cells (Griess reagent). It counts as cell-based. Particulars: Mus musculus, RAW264.7, 24 h; read-out: NFκB inhibition IC50. Here is the method:
It is known that when macrophage-like RAW 264.7 cells are stimulated with LPS (lipopolysaccharide), NFκB is activated, whereby the expression of iNOS (inducible NO synthetase) is enhanced, causing nitrous acid to accumulate in the culture broth due to the enzymatic activity of iNOS; the activation of NFκB can therefore be evaluated by measuring the buildup of nitrous acid in the culture broth.
RAW 264.7 cells were cultured in a 10% FBS supplemented RPMI 1640 culture broth. The cells were then suspended in the same culture broth to give a density of 4×10^5 cells/ml; the suspension was distributed on a 96-well microplate in 100 μl portions per well and subjected to pre-culture (in a CO2 incubator) for 24 hr. […] To measure NFκB inhibitory activity, a DMSO solution of each test sample was dissolved in the foregoing culture broth to make 3-fold serial dilutions having DMSO concentrations of 1% and less and absorbance was measured with and without adding the stimulant LPS.
Background: The Griess reaction detects nitrite, a stable product of nitric oxide.

Broadly, the IC50 is the midpoint of a concentration-inhibition curve. Broadly, the pIC50 is the IC50 on a negative log10 scale, so that one unit is a factor of ten.

pIC50: −log10 of the molar value. Where two headings read alike, the source gives them in different places.

`COc1cccc(/C=C/C(=O)c2ccccc2O)c1OC` [2,3-Dimethoxy-2′-hydroxychalcone]: the IC50 in experiment [1] is greater than 100 µM.

In the case of `COc1ccc(CCC(=O)c2c(O)cc(OC)cc2O)cc1` [2′,6′-Dihydroxy-4,4′-dimethoxydihydrochalcone], in experiment [1], the IC50 was greater than 100 µM.

In the case of `COc1cc(O)c(C(=O)/C=C/c2ccccc2)c(O)c1` [2′,6′-Dihydroxy-4′-methoxychalcone], the IC50 in experiment [1] is greater than 100 µM.

With `COc1ccc2c(=O)c(OC)c(-c3ccc(OC)c(OC)c3)oc2c1` [3,7,3′,4′-tetramethoxyflavone], the IC50 in experiment [1] is greater than 100 µM.

For the compound `CC(=O)c1cc2ccccc2oc1=O` [3-Acetylcoumarin], the IC50 in experiment [1] is greater than 100 µM.

For the compound `O=c1cc(-c2ccc(O)c(O)c2)oc2ccccc12` [3′,4′-Dihydroxyflavone], the half-inhibitory concentration (IC50) in experiment [1] was determined as 75 µM.

Consider `COc1ccc(-c2cc(=O)c3ccccc3o2)cc1OC` [3′,4′-Dimethoxyflavone], for which the IC50 in experiment [1] stood at 15 µM.

In the case of `COc1ccc(/C=C/C(=O)c2ccccc2)cc1` [4-Methoxychalcone], in experiment [1], the IC50 was greater than 100 µM.

With `COc1ccc(C(=O)/C=C/c2ccccc2)cc1` [4′-Methoxychalcone], the 50% inhibitory concentration (IC50) in experiment [1] is greater than 100 µM.

Regarding `COc1cc(-c2cc(=O)c3c(OC)c(OC)c(OC)cc3o2)cc(OC)c1OC` [5,6,7,3′,4′,5′-Hexamethoxyflavone], the IC50 in experiment [1] was roughly 100 µM.

For `COc1ccc(-c2cc(=O)c3c(OC)c(OC)c(OC)c(OC)c3o2)cc1OC` [5,6,7,8,3′,4′-Hexamethoxyflavone], in experiment [1], the IC50 turned out to be 80 µM and the “NOX inhibitory activity (in words)” value was “not found to have any strong NOX inhibitory activity”.

As for `COc1cc(OC)c2c(=O)cc(-c3cc(OC)c(OC)c(OC)c3)oc2c1` [5,7,3′,4′,5′-Pentamethoxyflavone], the IC50 in experiment [1] was greater than 100 µM.

Regarding `COc1ccc(-c2oc3cc(O)cc(O)c3c(=O)c2OC)cc1O` [5,7,3′-Trihydroxy-3,4′-dimethoxyflavone], the IC50 in experiment [1] was roughly 100 µM.

With `COc1cc(C2CC(=O)c3c(O)cc(O)cc3O2)cc(OC)c1OC` (centres unmarked) [5,7-Dihydroxy-3′,4′,5′-trimethoxyflavanone], in experiment [1], the IC50 is greater than 100 µM.

With `COc1cc(C)c2c(=O)c(-c3ccccc3)coc2c1` [5-Methyl-7-methoxy-isoflavone], the IC50 in experiment [1] was greater than 100 µM.

Turning to `O=c1cc(-c2ccc(O)c(O)c2)oc2c(O)c(O)ccc12` [7,8,3′,4′-Tetrahydroxyflavone], the IC50 in experiment [1] is roughly 100 µM.

`COc1ccc(-c2cc(=O)c3ccc(OC)c(OC)c3o2)cc1OC` [7,8,3′,4′-Tetramethoxyflavone]: the IC50 in experiment [1] was roughly 100 µM.

Turning to `COc1cc2ccc(=O)oc2c(C(C)=O)c1OC` [8-Acetyl-6,7-dimethoxycoumarin], the IC50 in experiment [1] was greater than 100 µM.

Take `COc1c(O)cc2ccc(=O)oc2c1C(C)=O` [8-Acetyl-6-hydroxy-7-methoxycoumarin]: in experiment [1], the IC50 is greater than 100 µM.

Turning to `CC(=O)c1c(O)ccc2ccc(=O)oc12` [8-Acetyl-7-hydroxycoumarin], the IC50 in experiment [1] is greater than 100 µM.

Consider `COc1ccc2ccc(=O)oc2c1C(C)=O` [8-Acetyl-7-methoxycoumarin], for which, in experiment [1], the 50% inhibitory concentration (IC50) is greater than 100 µM.

Take `COc1cc(OC)c2c(=O)cc(-c3ccc(OC)c(OC)c3)oc2c1` [KPEt-21, 5,7,3′,4′-Tetramethoxyflavone]: in experiment [1], the IC50 is 8 µM, the pIC50 was 4.42, the “NOX inhibitory activity (distribution %)” value worked out at 12% and the “NOX inhibitory activity (in words)” value is on record as “strong NOX inhibitory activity”. Besides, in experiment [2], the pIC50 was 5.22.

`COc1cc(OC)c2c(=O)c(OC)c(-c3ccc(OC)c(OC)c3)oc2c1` [KPEt-22, 3,5,7,3′,4′-Pentamethoxyflavone]: in experiment [1], the IC50 came out at 23 µM, the pIC50 was 4.15, the “NOX inhibitory activity (distribution %)” value turned out to be 45% and the “NOX inhibitory activity (in words)” value is on record as “strong NOX inhibitory activity”. For the same compound, the pIC50 in experiment [2] was 4.49.

As to `COc1cc(OC)c2c(=O)cc(-c3ccccc3)oc2c1` [KPEt-23, 5,7-Dimethoxyflavone], in experiment [1], the pIC50 was 4.28 and the “NOX inhibitory activity (distribution %)” value came to 19%. Besides, the pIC50 in experiment [2] was 5.15.

For `COc1ccc(-c2cc(=O)c3c(OC)cc(OC)cc3o2)cc1` [KPEt-25, 5,7,4′-Trimethoxyflavone], in experiment [1], the pIC50 is 4.28 and the “NOX inhibitory activity (distribution %)” value worked out at 21%. For the same compound, the pIC50 in experiment [2] is 5.15.

With `COc1cc(O)c2c(=O)c(OC)c(-c3ccc(OC)c(OC)c3)oc2c1` [KPEt-41, 5-hydroxy-3,7,3′,4′-Tetramethoxyflavone], the pIC50 in experiment [1] was less than 4.00; in experiment [2], 4.26.

Regarding `COc1cc(OC)c2c(=O)c(OC)c(-c3ccccc3)oc2c1` [KPEt-261, 3,5,7-Trimethoxyflavone], the pIC50 is less than 4.00 in experiment [1] and 4.57 in experiment [2].

For `COc1ccc(-c2oc3cc(OC)cc(OC)c3c(=O)c2OC)cc1` [KPEt-262, 3,5,7,4′-Tetramethoxyflavone], the pIC50 is less than 4.00 in experiment [1] and 4.49 in experiment [2].

For the compound `COc1cc(O)c2c(=O)cc(-c3ccccc3)oc2c1` [KPEt-421, 5-hydroxy-7-Methoxyflavone], the pIC50 in experiment [1] was less than 4.00; in experiment [2] it was 4.38.

As for `COc1ccc(-c2cc(=O)c3c(O)cc(OC)cc3o2)cc1` [KPEt-422, 5-hydroxy-7,4′-Dimethoxyflavone], the pIC50 was less than 4.00 in experiment [1] and 4.25 in experiment [2].

With `COc1cc(O)c2c(=O)c(OC)c(-c3ccccc3)oc2c1` [KPEt-431, 5-hydroxy-3,7-Dimethoxyflavone], the values for the pIC50 in experiment [1] and in experiment [2] were less than 4.00 and 4.54, respectively.

Take `COc1ccc(-c2oc3cc(OC)cc(O)c3c(=O)c2OC)cc1` [KPEt-432, 5-hydroxy-3,7,4′-Trimethoxyflavone]: the values for the negative-log IC50 (pIC50) in experiment [1] and in experiment [2] were less than 4.00 and 4.52, respectively.

Regarding `CC(=O)OC(C)(C)[C@@H]1Cc2c(ccc3ccc(=O)oc23)O1` [o-Acetylcolumblanetin], the IC50 in experiment [1] was determined as 19 µM.
